Measurements published in patent US20220280460A1, “METHODS AND COMPOSITIONS FOR STIMULATING EXOSOME SECRETION” (UNIVERSITY OF PITTSBURGH-OF THE COMMONWEALTH SYSTEM OF …, priority 2019, published 2022).

What was measured:
[1] = tested on: UMSCC47 HPV(+) head and neck cancer cells; test: Exosome secretion by UMSCC47 cells; format: cell-based; details: for exosome production by UMSCC47 cells: total exosomal protein normalized to 10^6 cells
Description: All cell lines were grown at 37° C. in the atmosphere of 5% CO2 in air. Cultures were supplemented with fetal bovine serum (FBS) depleted of exosomes by ultracentrifugation at 100,000×g for 3 h. Cells were cultured in 150 cm^2 cell culture flasks using 25 ml of culture medium. Media used for cell cultures are described in Table 1. Seeding protocol was optimized for each cell type as recently described in Ludwig N., et al., (Exp Cell Res. 2019; 378(2):149-57). After seeding, cells were allowed to attach to the flask for 6 h, were then treated with indicated reagents and incubated for 48 or 72 h as indicated.
Exosome isolation by mini-SEC: Processing of supernatants and exosome isolation by mini-SEC was performed as previously described in Ludwig et al. Briefly, cell culture supernatants were centrifuged at room temperature (RT) for 10 min at 2000×g, were transferred to new tubes for centrifugation at 10,000×g at 4° C. for 30 min and filtrated using a 0.22 μm bacterial filter. Afterwards, aliquots of supernatants were concentrated by using Vivacell 100 concentrators at 2000×g. 1 mL of concentrated supernatant was loaded on a 10 cm-long Sepharose 2-B column and individual 1 mL fractions were collected. Fraction #4 containing non-aggregated exosomes was used in subsequent assays. The established isolation technique fulfils the criteria of the MISEV2018 guidelines and therefore the term ‘exosomes’ is used.
Protein concentration: Protein concentrations were determined by using a BCA protein assay (Pierce Biotechnology, Rockford, Ill., USA) according to the manufacturer's instructions.
Tunable resistive pulse sensing (TRPS): Size distribution and concentrations of the particles in isolated exosome fractions were analyzed using tunable-resistive pulse sensing (TRPS) by qNano (Izon) as described in Ludwig N, et al., Mol Cancer Res. 2018; 16(11):1798-808.

[2] = tested on: Preglomerular vascular smooth muscle cells (PGVSMCs); test: Exosome production by PGVSMCs from CNPase +/+ and −/− rats; format: cell-based, rat; details: 8-Br-2′,3′-cAMP 0.3 μM; IAA/DNP 5 μM
Text: Isolation of rat CNPASE +/+ and −/− PGVSMCs: 2′,3′-Cyclic nucleotide 3′-phosphodiesterase (CNPase) knockout rats used in this example were generated by the MCW Gene Editing Rat Resource Program. This strain was produced by injecting a CRISPR targeting the sequence […] into rat embryos. The resulting mutation was a 7 base pair deletion in exon 2. Animals were genotyped by PCR. Preglomerular vascular smooth muscle cells (PGVSMCs) were isolated from kidneys of wild type (CNPase +/+) and knockout (CNPase −/−) rats using a previously described method. Cells were cultured at 37° C. in the atmosphere of 5% CO2 in air using DMEM supplemented with exosome-depleted FBS. Exosome isolation was performed as described above.

| SMILES | exosome production by UMSCC47 cells [1] | effect on stimulation of exosome production by IAA/DNP ([1]; UMSCC47, in combination with IAA/DNP) | stimulation of exosome production, CNPase −/− versus CNPase +/+ PGVSMCs [2] |
| --- | --- | --- | --- |
| Nc1ncnc2c1ncn2[C@@H]1O[C@H](CO)[C@H]2OP(=O)(O)O[C@H]21 [2′,3′-cAMP] | stimulated exosome production, but only at high concentrations |  |  |
| Nc1ncnc2c1ncn2[C@@H]1O[C@H](CO)[C@@H](OP(=O)(O)O)[C@H]1O [3′-AMP] | significantly stimulated exosome release |  |  |
| Nc1ncnc2c1ncn2[C@@H]1O[C@H](CO)[C@@H](O)[C@H]1OP(=O)(O)O [2′-AMP] | did not affect exosome secretion |  |  |
| CCCn1c(=O)c2[nH]c(-c3ccc(OCC(=O)Nc4ccc(C#N)cc4)cc3)nc2n(CCC)c1=O [MRS 1754] |  | significantly decreased |  |
| Nc1ncnc2c1nc(Br)n2C1OC(CO)C2OP(=O)(O)OC21 (stereo not drawn) [8-Br-2′,3′-cAMP] | concentration-dependent increase in exosome secretion |  | greater in CNPase −/− compared with CNPase +/+ cells |
